Literature values, collected in patent US12343354B2, “Injection containing p-boronophenylalanine” (Stella Pharma Corporation, priority 2019, dated 2025).

Settings: physiological pH

solubility: very poor solubility
Structure (SMILES): N[C@@H](Cc1ccc(B(O)O)cc1)C(=O)O [p-Boronophenylalanine, p-boronophenylalanine]
